According to PubChem BioAssay (NCI):
“And” between values parts separate entries of the source, which are not always exact repeats. Equal values may be shown once.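 Test compounds were applied to cells in 96-well plates for 48 hours at 5 doses. Abbreviation: GI50, concentration required for 50% inhibition of growth. TGI: total growth inhibition.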

Experiments:
Assay in all cases: NCI anticancer screen, dose series, 48 h
NCI-H226 lung = system: NCI-H226 lung
OVCAR-4 ovarian = system: OVCAR-4 ovarian
786-0 renal = system: 786-0 renal
MDA-MB-435 = system: MDA-MB-435
A549 NSCLC = system: A549 NSCLC
HCT-15 colon = system: HCT-15 colon
HOP-92 NSCLC = system: HOP-92 NSCLC
NCI/ADR-RES ovarian = system: NCI/ADR-RES ovarian
MOLT-4 leukemia = system: MOLT-4 leukemia
NCI-H460 lung = system: NCI-H460 lung

## COC1=C(N)C(=O)c2nc(-c3nc(C(=O)O)c(C)c(-c4ccc(OC)c(OC)c4O)c3N)ccc2C1=O
NCI-H226 lung
  GI50: 0.00126 µM and 0.00319 µM
OVCAR-4 ovarian
  TGI: 0.0183 µM and 0.0416 µM and 0.0515 µM
786-0 renal
  TGI: 0.00261 µM and 0.0217 µM and < 0.01 µM
MDA-MB-435
  GI50: 0.0266 µM and 0.0104 µM
A549 NSCLC
  GI50: 0.00135 µM and 0.00894 µM
  TGI: 0.00428 µM and 0.0325 µM and 0.0216 µM
HCT-15 colon
  GI50: 0.00144 µM and 0.00832 µM and < 0.01 µM
HOP-92 NSCLC
  GI50: 0.00666 µM and < 0.0284 µM
  TGI: 0.0442 µM and 0.428 µM
NCI/ADR-RES ovarian
  GI50: 0.00121 µM and 0.00809 µM
  TGI: 0.0151 µM and 0.094 µM and 0.0169 µM
MOLT-4 leukemia
  TGI: 0.0805 µM and 0.0445 µM and < 0.0167 µM

## Cn1cc(/C=C\[N+](=O)[O-])c2ccccc21
NCI-H226 lung
  GI50: 53.3 µM
  TGI: > 100 µM
786-0 renal
  GI50: > 100 µM
  TGI: > 100 µM
MDA-MB-435
  GI50: 27.7 µM
  TGI: 84.7 µM
NCI-H460 lung
  GI50: 38.6 µM
  TGI: > 100 µM
A549 NSCLC
  GI50: 46.4 µM
  TGI: > 100 µM
HCT-15 colon
  GI50: 44.3 µM
  TGI: > 100 µM
HOP-92 NSCLC
  GI50: 30.6 µM
  TGI: > 100 µM
NCI/ADR-RES ovarian
  GI50: > 100 µM
  TGI: > 100 µM
MOLT-4 leukemia
  GI50: 23.7 µM
  TGI: 58.4 µM

## COc1cc(CNCCCCCCN2C(=O)c3cccc4cccc(c34)C2=O)ccc1O
OVCAR-4 ovarian
  GI50: 6.14 µM
  TGI: 19.2 µM
786-0 renal
  GI50: 5.59 µM
  TGI: 19.9 µM
MDA-MB-435
  GI50: 3.89 µM
  TGI: 15.9 µM
NCI-H460 lung
  GI50: 3.71 µM
  TGI: 15.9 µM
A549 NSCLC
  GI50: 5.56 µM
  TGI: 19.4 µM
HCT-15 colon
  GI50: 10.4 µM
  TGI: 29.6 µM
HOP-92 NSCLC
  GI50: 2.46 µM
  TGI: 17.5 µM
NCI/ADR-RES ovarian
  GI50: 10.4 µM
  TGI: 32.9 µM
MOLT-4 leukemia
  GI50: 3.45 µM
  TGI: 16.2 µM

## Cc1ccccc1N=Nc1c(O)ccc2ccccc12
NCI-H226 lung
  TGI: > 100 µM
OVCAR-4 ovarian
  TGI: > 100 µM
786-0 renal
  TGI: > 100 µM
MDA-MB-435
  TGI: > 100 µM
A549 NSCLC
  TGI: > 100 µM
HCT-15 colon
  TGI: > 100 µM
HOP-92 NSCLC
  TGI: > 100 µM
NCI/ADR-RES ovarian
  TGI: > 100 µM
MOLT-4 leukemia
  TGI: > 100 µM

## CCOC(=O)c1c(-c2ccccc2)[n+](=O)c2cc(Cl)c(Cl)cc2n1[O-]
OVCAR-4 ovarian
  GI50: 2.48 µM
  TGI: 6.62 µM
786-0 renal
  GI50: 1.54 µM
  TGI: 2.87 µM
MDA-MB-435
  GI50: 5.36 µM
  TGI: 19 µM
NCI-H460 lung
  GI50: 18.9 µM
  TGI: 46.7 µM
A549 NSCLC
  GI50: 15.5 µM
  TGI: 34.4 µM
HCT-15 colon
  GI50: 6.55 µM
  TGI: 21 µM
HOP-92 NSCLC
  GI50: 2.09 µM
  TGI: 4.6 µM
NCI/ADR-RES ovarian
  GI50: 18 µM
  TGI: 44.7 µM
MOLT-4 leukemia
  GI50: > 100 µM
  TGI: > 100 µM

## COc1cc(-c2cc(/C=C/C(=O)c3ccc(F)c(F)c3)[nH]n2)cc(OC)c1OC
NCI-H226 lung
  GI50: 3.72 µM
  TGI: 15.8 µM
OVCAR-4 ovarian
  GI50: 2.2 µM
  TGI: 71.7 µM
786-0 renal
  GI50: 3.35 µM
  TGI: 15.7 µM
MDA-MB-435
  GI50: 2.88 µM
  TGI: 13.3 µM
NCI-H460 lung
  GI50: 2.96 µM
  TGI: 8.24 µM
A549 NSCLC
  GI50: 2.43 µM
  TGI: 9.9 µM
HCT-15 colon
  GI50: 3.01 µM
  TGI: > 100 µM
NCI/ADR-RES ovarian
  GI50: 3.46 µM
  TGI: 50.5 µM
MOLT-4 leukemia
  GI50: 2.72 µM
  TGI: 9.09 µM

## CCOCC1(COCC)CCC(c2[nH]ncc2CN(C)CCNC)CC1
NCI-H226 lung
  GI50: > 100 µM
  TGI: > 100 µM
OVCAR-4 ovarian
  GI50: > 100 µM
  TGI: > 100 µM
786-0 renal
  GI50: > 100 µM
  TGI: > 100 µM
MDA-MB-435
  GI50: > 100 µM
  TGI: > 100 µM
NCI-H460 lung
  GI50: > 100 µM
  TGI: > 100 µM
A549 NSCLC
  GI50: > 100 µM
  TGI: > 100 µM
HCT-15 colon
  GI50: > 100 µM
  TGI: > 100 µM
NCI/ADR-RES ovarian
  GI50: > 100 µM
  TGI: > 100 µM
MOLT-4 leukemia
  GI50: > 100 µM
  TGI: > 100 µM
